Data reported in patent US8299097B2, “Methods for treating inflammatory disorders” (The Brigham and Women's Hospital, Inc., priority 2008, dated 2012).
Each block holds one molecule with its values, some of them ahead of it.

Columns and labels:
[1] = system: CHO cells expressing CysLT1R, CysLT2R, or P2Y12 receptors; assay: Calcium flux in Fura-2-AM-loaded CHO transfectants; format: cell-based, human; conditions: LTE4 500 nM, ADP 100 μM; ADP response reflects endogenous P2Y receptors
human blood platelets = assay: Platelet activation, cytofluorographic detection of P-selectin (CD62P); format: cell-based; conditions: ADP 100 μM or LTE4 1 μM, 10 min
Protocol: (§1) FIG. 6. […] Each antibody (Ab) was diluted in 50 μl of sterile saline. […] 6A. PAS stains of the lungs of representative mice treated with isotype control (top) or with an anti-CD42 platelet-depleting antibody (bottom). 6B. Inflammation (top) and goblet cell metaplasia (bottom) in the lungs of mice treated with the indicated LT and antibody. A cohort of mice was treated with clopidogrel as indicated. Results in 6B are from a single experiment with 5 mice per group. […] 6C. […] Results are from a single experiment performed three times on different donors.
(§2) Platelets accumulate in the lungs of asthmatic individuals (Jeffery, P. K., et al. 1989. Am. Rev. Respir. Dis. 140:1745-1753), and are also recruited to the lungs of ovalbumin sensitized and challenged mice by an IgE-dependent mechanism (Pitchford, S. C., et al. 2008. Am. J. Respir. Crit. Care Med. 177:604-612).

human P2Y12 = human P2Y12 (Homo sapiens, UniProt Q9H244); assay: Binding of cys-LTs to membranes of CHO cells stably expressing the human P2Y12 receptor; parameters: polyhistidine (HIS) tag (C); expressed in transfected cells
Chain of human P2Y12 (Q9H244 whole entry): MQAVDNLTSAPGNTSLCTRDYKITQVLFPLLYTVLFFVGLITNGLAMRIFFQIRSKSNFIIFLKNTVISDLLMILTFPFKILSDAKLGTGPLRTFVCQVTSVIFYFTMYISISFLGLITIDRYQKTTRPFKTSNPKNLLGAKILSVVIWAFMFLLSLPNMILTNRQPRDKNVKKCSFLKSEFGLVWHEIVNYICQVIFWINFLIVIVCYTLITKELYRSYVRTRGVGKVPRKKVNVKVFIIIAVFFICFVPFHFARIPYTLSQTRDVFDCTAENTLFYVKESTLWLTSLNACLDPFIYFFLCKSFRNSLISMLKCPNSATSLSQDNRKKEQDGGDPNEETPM
Description: A P2Y12 receptor cDNA was amplified by reverse transcriptase polymerase chain reaction (RT-PCR) from RNA extracted from primary hMCs and cloned into a mammalian expression vector. Expression was confirmed by detection of a histidine (HIS) tag by flow cytometry. Another cohort of CHO cells were stably transfected with a P2Y12 receptor construct in reverse orientation as a negative control. […] The cys-LT-induced ERK activation blocked by pre-treatment of the cells with pertussis toxin (PTX), was attenuated by treatment with the P2Y12 receptor-selective antagonist 2-methylthioadenosine monophosphate (2-MesAMP) (FIG. 1C), and was resistant to MK571, an inhibitor that blocks CysLT1R and some P2Y receptors (Mamedova, L., et al. 2005. Biochem. Pharmacol. 71:115-125). […] These responses were resistant to PTX and 2-MesAMP, and susceptible to MK571 in the case of the CysLT1R transfectants.
A human P2Y12 receptor cDNA was amplified by 30 cycles of PCR from reverse-transcribed total RNA extracted from primary cord blood hMCs. The primer sequences were 5′-[…] (SEQ ID NO: 1) and 3′-[…] (SEQ ID NO: 2). The fragment was cloned into a TA vector (INVITROGEN™). After verifying the nucleotide sequence, the fragment was subcloned into the multiple cloning site of the expression vector pEF1/His B, encoding a C-terminal polyhistidine (HIS) tag. A plasmid expressing the P2Y12 receptor construct in the forward orientation were transfected into CHO cells using Fugene HD reagent according to manufacturer's protocol. A construct in the reverse sequence was transfected in parallel as a negative control. […]
[^3H] […] Protein concentration was determined using Biorad Protein Assay Kit. […] The residual membrane-associated [^3H] on the filter was determined in 2 ml scintillation fluid by beta counter (Perkin Elmer). For [^3H]ADP, specific binding was determined by subtracting the amount of [^3H] bound in the presence of 100 μM 2-MesADP from total binding.

P2Y12 receptors [2] = molecular target: T1, P2Y12 receptors (Mus musculus, UniProt Q9CPV9); conditions: both antigen doses (3 and 10 μg Der f)
T1 sequence (Q9CPV9 whole entry): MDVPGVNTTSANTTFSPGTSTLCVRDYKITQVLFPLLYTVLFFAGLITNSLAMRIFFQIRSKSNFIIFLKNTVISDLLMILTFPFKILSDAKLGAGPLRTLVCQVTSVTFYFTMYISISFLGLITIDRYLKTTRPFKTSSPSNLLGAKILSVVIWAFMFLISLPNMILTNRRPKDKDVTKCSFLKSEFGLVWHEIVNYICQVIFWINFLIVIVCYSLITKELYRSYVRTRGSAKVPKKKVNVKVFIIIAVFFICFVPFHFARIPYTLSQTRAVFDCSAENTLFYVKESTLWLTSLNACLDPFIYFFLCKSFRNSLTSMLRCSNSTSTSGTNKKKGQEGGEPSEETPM
Protocol: Role of P2Y12 receptors in inflammation mediated by dust mite allergen. C57BL/6 mice were treated intranasally with the indicated dose of Dermatophagoides farinae (Der f) extract twice weekly for 3 weeks. Animals were euthanized 24 h after the last dose. […] Effect of clopidogrel treatment on bronchovascular inflammation and goblet cell metaplasia in C57BL/6 mice subjected to intranasal challenge with the indicated doses of an extract from the house dust mite. Results are the mean±SEM from 5 mice/group. The experiment was repeated three times with similar results.
To determine whether pharmacologic blockade of P2Y12 receptors altered pulmonary inflammatory responses in a more physiologic model of pulmonary inflammation, C57BL/6 mice were administered an extract of house dust mite Dermatophagoides farinea (Der f) intranasally twice weekly for three weeks, with or without clopidogrel treatment. Two different doses of Der f were used to elicit moderate (at 3 μg) and severe (at 10 μg) inflammation, respectively.
For Der f-mediated pulmonary inflammation, 6-8 week old C57BL/6 mice were lightly anaesthetized and received either 3 or 10 μg of Der f extract (Greer Labs) on days 0, 3, 7, 10, 14 and 17. Some mice received clopidogrel throughout the duration of the experiment. Mice were euthanized 24 h after the last intranasal instillation.
2.5 μm thick glycolmethacrylate sections were stained with H&E for general morphologic examination. […] The extent of cellular infiltration in the bronchovascular bundles was evaluated without knowledge of the particular treatment and was categorized arbitrarily as grade 0=no inflammation, grade 1=mild inflammation, grade 2=moderate inflammation, grade 3=severe inflammation. 15 bronchovascular bundles of each mouse were evaluated. […] The length of basal lamina of corresponding bronchus was measured by Image J (NIH image analysis software). […] The data were expressed as the average of goblet cell counts stained in each bronchus in each section per mm bronchial basal lamina.

P2Y12 receptors [3] = molecular target: T1, P2Y12 receptors; assay: Clopidogrel effect on LTE4-mediated amplification of OVA-induced pulmonary inflammation; format: in vivo; parameters: from tissue; host or cells: whole animal: BALB/c (OVA model) and C57BL/6 (Der f model) mice
Protocol: FIG. 4. […] 4A. […] Clopidogrel (500 μg/ml) was added to the drinking water of the indicated groups of mice for 72 h before the first intranasal dose of LTs, and was maintained throughout the treatment. Results are mean±SEM from at least 9 mice in each group. The experiments were repeated three times with similar results. 4B. PAS stains (left column) from representative mice in the indicated groups showing the effect of clopidigrel on goblet cell metaplasia. Higher magnification images of H & E stains (right) from the same animals showing cellular characteristics of the bronchovascular infiltrates. 4C. Effect of clopidogrel administration on the steady-state expression of IL-13 and MUC5AC mRNA as determined by real-time PCR of whole lung RNA extracted 24 h after the last OVA challenge of the indicated groups. Data are mean±SEM from 4-5 mice/group from a single experiment. Results in a second experiment were similar 4D-4F. […] 4D. Total cell numbers (top), percentages of eosinophils (middle), and total numbers of eosinophils in BAL fluid recovered 24 h after the last challenge with OVA. 4E. Goblet cell metaplasia (top) and representative PAS stains (bottom) from wild-type and p2ry12^−/− mice subjected to the same protocol. 4E. Inflammation scores from the same mice. Data in 4D-4F are from 4 mice per group. Results in a second experiment were similar 4G. BALB/c Cysltr1/Cysltr2^−/− mice and age-matched WT controls were subjected to the same protocol as the p2ry12^−/− mice. Total cell numbers (top), percentages of eosinophils (middle), and total numbers of eosinophils in BAL fluid recovered 24 h after the last challenge with OVA. Results are from 6 mice per group. Three experiments were performed with similar results. 4H. Goblet cell numbers (top) and representative PAS stains (bottom). 4I. Quantitative assessment of bronchovascular inflammation as determined by H & E stains. Results are from 6 mice/group.
FIG. 5. Effect of clopidogrel on LTE4-mediated amplification of pulmonary inflammation. 5A. […] The indicated mice were treated with clopidogrel for 72 h before the first dose of leukotriene. Results are mean±SEM from a minimum of 9 mice in each group. 5B. PAS stains (left column) from representative mice in the indicated groups showing the effect of clopidigrel on goblet cell metaplasia. Higher magnification images of H & E stains (right) from the same animals showing cellular characteristics of the bronchovascular infiltrates. 5C. Effect of clopidogrel administration on the steady-state expression of IL-13 and MUC5AC mRNA as determined by real-time PCR of whole lung RNA extracted 24 h after the last OVA challenge of the indicated groups. Data are mean±SEM from 4-5 mice/group. […]

mouse CD42b (GPIbα) = assay: Platelet depletion in sensitized mice given LTE4 and low-dose OVA; conditions: in vivo
Protocol: as §1, §2

P2Y receptor signaling = conditions: mouse, in vivo; cited from earlier work
5-LO = molecular target: T2, 5-LO (Homo sapiens, UniProt P09917); conditions: cited from earlier work
T2 sequence (P09917 1-674): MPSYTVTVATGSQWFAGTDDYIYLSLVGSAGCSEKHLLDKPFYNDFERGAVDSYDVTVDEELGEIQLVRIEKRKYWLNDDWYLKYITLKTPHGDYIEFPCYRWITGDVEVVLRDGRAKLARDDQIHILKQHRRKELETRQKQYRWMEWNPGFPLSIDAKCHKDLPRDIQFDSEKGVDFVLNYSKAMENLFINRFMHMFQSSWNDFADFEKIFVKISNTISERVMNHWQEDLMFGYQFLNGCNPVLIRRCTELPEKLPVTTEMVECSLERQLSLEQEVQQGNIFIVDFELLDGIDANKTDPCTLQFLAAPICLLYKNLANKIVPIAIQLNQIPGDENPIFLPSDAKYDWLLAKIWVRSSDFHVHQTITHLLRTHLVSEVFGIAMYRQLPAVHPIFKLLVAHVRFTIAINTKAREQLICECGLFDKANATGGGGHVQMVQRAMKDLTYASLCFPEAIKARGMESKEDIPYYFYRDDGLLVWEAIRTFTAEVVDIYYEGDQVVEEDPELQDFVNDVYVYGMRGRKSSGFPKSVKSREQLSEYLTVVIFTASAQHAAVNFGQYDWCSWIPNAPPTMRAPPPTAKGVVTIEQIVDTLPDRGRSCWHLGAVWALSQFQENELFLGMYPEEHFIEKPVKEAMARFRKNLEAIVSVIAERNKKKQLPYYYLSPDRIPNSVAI

[4] = clopidogrel 500 μg/ml in drinking water

Structure (SMILES): Nc1ncnc2c1ncn2[C@@H]1O[C@H](COP(=O)(O)OP(=O)(O)O)[C@@H](O)[C@H]1O [ADP, adenosine diphosphate]
calcium flux [1]: did exhibit a response | CD62P expression by platelets (human blood platelets): elicited CD62P expression

binding to membranes of the transfectants (human P2Y12): also bound
Structure (SMILES): CCCCC/C=C\C\C=C/C=C/C=C/[C@@H](SC[C@H](NC(=O)CC[C@H](N)C(=O)O)C(=O)NCC(=O)O)[C@@H](O)CCCC(=O)O [LTC4]

attenuation of BAL fluid eosinophilia (P2Y12 receptors [2]): ~75% | goblet cell metaplasia (P2Y12 receptors [2]): significant reductions | pulmonary inflammation (P2Y12 receptors [2]): significant reductions
Structure (SMILES): COC(=O)C(c1ccccc1Cl)N1CCc2sccc2C1 (stereo not drawn) [clopidogrel, methyl alpha-5 (4,5,6,7-tetrahydro (3,2-c)thienopyridyl)(2-chlorophenyl)-acetate]
LTE4-induced potentiation of goblet cell metaplasia (P2Y12 receptors [3]; [4]): complete lack of LTE4-induced potentiation | LTE4-induced potentiation of inflammation (P2Y12 receptors [3]; [4]): complete lack of LTE4-induced potentiation | lung expression of IL-13 and MUC5AC mRNA (real-time PCR) (P2Y12 receptors [3]; whole lung RNA 24 h after last OVA challenge): substantially suppressed the expression of both | LTE4-mediated expression of mRNA encoding IL-13 and MUC5AC (mouse CD42b (GPIbα)): sharply reduced | combination of platelet depletion with clopidogrel (mouse CD42b (GPIbα)): not additive

Structure (SMILES): Cc1ccc(C(=O)Nc2ccc(S(=O)(=O)O)c3cc(S(=O)(=O)O)cc(S(=O)(=O)O)c23)cc1NC(=O)c1cccc(NC(=O)Nc2cccc(C(=O)Nc3cc(C(=O)Nc4ccc(S(=O)(=O)O)c5cc(S(=O)(=O)O)cc(S(=O)(=O)O)c45)ccc3C)c2)c1 [suramin]
allergen-induced pulmonary inflammation and AHR (P2Y receptor signaling): dramatically inhibited

Structure (SMILES): CC(c1cc2ccccc2s1)N(O)C(N)=O (stereo not shown) [zileuton]
block of cys-LT generation in vivo (5-LO): ~50%
